Results: PubChem BioAssay AID179 (DTP/NCI, 2004)
Active and inactive are the calls of the source.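 Rule for the calls: active = compounds giving half or more protection of infected cells from virus-caused growth loss, again on retest; inactive = the rest.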

Test system: CEM cells HIV-1 protection, formazan growth assay
Test: NCI AIDS Antiviral Assay
Details: for IC50: measured here: growth of uninfected CEM cells
Outline: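 Category rules: moderately active means at least 50% protection on retest, and confirmed active means 100% protection reproducibly. The underlying data came from a formazan growth assay in HIV-1-infected CEM cells.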

CCC(CCNC(=O)c1ccccc1)(CCNC(=O)c1ccccc1)[N+](=O)[O-]
EC50: > 200 µM
IC50: > 200 µM

CCC[CH2][Sn]1([CH2]CCC)[O]N=C(c2ccccc2)C(c2ccccc2)[O]1 (configuration not stated)
EC50: > 19.5 µM
IC50: 2.45 µM

Cn1cnc([N+](=O)[O-])c1Sc1nc2ncccc2[nH]1
EC50: > 912 µM
IC50: 21.9 µM

O=c1cc(N2CCCC2)[nH]c(=O)n1Cc1ccccc1
outcome: inactive

CC(=O)OC1(c2ccccc2)OC(=O)C(C)(C)c2ccccc21 (configuration not stated)
EC50: > 158 µM
IC50: > 158 µM

CC1C(=O)OC2C=CC3(C)C(=O)OC4OC5(c6ccoc6)CC1(O)C2(C)C43O5 (configuration not stated)
EC50: > 200 µM
IC50: > 200 µM

COC(=O)[C@H](Cc1ccc(OC(C)(C)C)cc1)N[C@H](C)C(=O)N[C@@H](Cc1ccccc1)C(=O)OCc1ccccc1
EC50: > 200 µM
IC50: 27.5 µM

CCOc1ccc(N=NC2C(=O)N(C(=O)CC(=O)Nc3ccc(C)cc3)N=C2C)cc1 (configuration not stated)
EC50: > 200 µM
IC50: 10.5 µM

CN(C)Cc1ccccc1CCO
EC50: > 200 µM
IC50: > 200 µM

N#Cc1nc(/C=C/c2nc(C#N)c(N)o2)oc1N
EC50: > 100 µM
IC50: > 100 µM

Nc1sccc1S(=O)(=O)c1ccsc1N
EC50: > 200 µM
IC50: 87.1 µM

O=c1[nH]c2cc3[nH]c4ncccc4c(=O)c3cc2[nH]1
EC50: 148 µM
IC50: > 200 µM

CC(C)C(OC(=O)c1cc(NC(=S)c2ccccc2)ccc1Cl)C(C)C
EC50: 0.437 µM
IC50: 11.7 µM

CN(C)CCCNC(=O)c1cc(NC(=O)c2cc(NC(=O)c3cc(NC(=O)c4ncccc4C(=O)O)cn3C)cn2C)cn1C
EC50: > 200 µM
IC50: > 200 µM

COc1cc(/C=C2\C(=O)N(Cc3ccccc3)C(c3ccccc3)S2(=O)=O)cc(OC)c1OC (configuration not stated)
EC50: > 20 µM
IC50: 3.31 µM

CCOC(=O)C#CCC/C=C(\C)COC1CCCCO1 (configuration not stated)
outcome: inactive

CN1C/C(=C\c2ccco2)c2nc(N)nc(-c3ccco3)c2C1
outcome: inactive

CC1(Br)CN(C(=S)Nc2ccccc2)C1=O (configuration not stated)
EC50: > 200 µM
IC50: 97.7 µM

CN1CCC2c3c([nH]c4ccccc34)C(C)(C)OC2C1 (configuration not stated)
EC50: > 200 µM
IC50: > 200 µM

CC[N+]1(C)CCC(O)(c2ccccc2)C(C(=O)c2ccccc2)C1 (configuration not stated)
outcome: inactive

CC1C/C(=N\N(C)C)C(C#N)(C#N)C1(C#N)C#N (configuration not stated)
EC50: > 200 µM
IC50: 6.03 µM

COc1cc(C(C2=C(O)c3ccccc3C(=O)C2=O)C2=C(O)c3ccccc3C(=O)C2=O)cc(Br)c1O
EC50: > 200 µM
IC50: 32.4 µM

CC1N=C(c2ccccn2)C(c2ccccn2)=NC1c1ccccc1 (configuration not stated)
EC50: > 79.4 µM
IC50: > 79.4 µM

CC(C)(C)[C@H]1CCC2(OCCO2)[C@](O)(CCCO)C1
EC50: > 200 µM
IC50: > 200 µM

COc1cc(-c2cc(=O)c3c(O)c(OC)c(OC)c(OC)c3o2)cc(OC)c1OC
EC50: > 70.8 µM
IC50: > 70.8 µM

C=CCc1c(O)c2ccccc2[nH]c1=O
EC50: > 200 µM
IC50: > 200 µM

O=[N+]([O-])c1ccc(C2=Cc3ccc4ccccc4[n+]3NC2)cc1
EC50: > 50.1 µM
IC50: > 50.1 µM

O=C(C(/C=N/C(=S)NC1C(=O)Nc2ccccc21)=C(/O)c1ccccc1)c1ccccc1 (configuration not stated)
EC50: > 200 µM
IC50: 41.7 µM

CC1OC(OC2C(Oc3cc(O)c4c(c3)O[C@H](c3ccc(O)cc3)CC4=O)OC(CO)C(O)C2O)C(O)C(O)C1O (some centres not stated)
EC50: > 200 µM
IC50: > 200 µM

CCCCCCCCCCCc1c(O)c(O)cc2nc3ccc(Sc4ccccc4)cc3nc12
EC50: > 15.1 µM
IC50: 4.57 µM

O=C(CNN1C(=O)CSC1=Nc1cccc2ccccc12)c1cccc2c1Nc1ccccc1S2
outcome: inactive

COC(=O)C(C#N)=C1c2ccccc2Oc2ccccc21
EC50: > 129 µM
IC50: 66.1 µM

Cc1cc[n+](C2=C([O-])C3=C(C(=O)C2=O)C2c4ccccc4C3c3ccccc32)c(C)c1
EC50: > 33.9 µM
IC50: 31.6 µM

N#CCCN(c1ccc(/C=N/c2nc(-c3ccccc3)cs2)cc1)S(=O)(=O)c1ccccc1
EC50: > 55 µM
IC50: > 55 µM

C=C1CCC(=O)NC1=O
outcome: inactive

O=C(N/N=C\C(F)(F)F)c1ccncc1
EC50: > 200 µM
IC50: 3.55 µM

Cc1cccc(NS(=O)(=O)c2ccc3c(c2)OCCOCCOCCOCCO3)c1
EC50: > 200 µM
IC50: 158 µM

CC(=O)Nc1oc(C)nc1C#N
EC50: > 200 µM
IC50: > 200 µM

CCC/C(Cl)=N\OC(=O)Nc1ccc(Br)cc1
outcome: inactive

COS(=O)c1cc(Cl)cc(Cl)c1O (configuration not stated)
outcome: inactive

COC(=O)CC1NC(=O)[C@@H]1C(C)O (some centres not stated)
EC50: > 251 µM
IC50: > 251 µM

COC(=O)c1nc(N)nc(C(=O)OC)c1C(=O)c1ccccc1
EC50: > 60.3 µM
IC50: > 60.3 µM

COc1ccccc1Nc1nc(NNC(=O)Cc2ccccc2)nc(NNC(=O)c2ccncc2)n1
EC50: > 50.1 µM
IC50: > 50.1 µM

Nc1cc2c3c(cccc3c1)C(=O)N(CCN1CCCC1)C2=O
EC50: > 200 µM
IC50: 1.07 µM

COc1c(Cl)cc(C(=CCCCC(=O)O)c2cc(Cl)c(OC)c(C(=O)O)c2)cc1C(=O)O
EC50: > 200 µM
IC50: > 200 µM

CC(C)=CCc1c(O)c(CC2=C(O)C(C)=C(O)C(CC=C(C)C)(C(=O)C(C)C)C2=O)c(O)c(C(=O)C(C)C)c1O (configuration not stated)
EC50: > 100 µM
IC50: 4.57 µM

O=C(c1ccco1)N(C(=S)N1CCN(c2ccccn2)CC1)c1ccccc1
EC50: > 47.9 µM
IC50: 46.8 µM

O=C(C1OC1c1ccc(O)cc1)C12CC3CC(CC(C3)C1)C2 (configuration not stated)
EC50: > 200 µM
IC50: 52.5 µM

COC[C@H]1c2cc(O)c(OCc3ccccc3)cc2O[C@@H]1c1ccc(OC)cc1
EC50: > 200 µM
IC50: 19.5 µM

O=C(O)COc1ccc(C(=O)/C(SS/C(C(=O)c2ccc(OCC(=O)O)c(Cl)c2Cl)=C2\C=C(c3ccc(Cl)cc3)SS2)=C2/C=C(c3ccc(Cl)cc3)SS2)c(Cl)c1Cl
outcome: inactive

O=c1ccn(C2OC(CN(O)CCC3C(O)C(CO)OC3n3ccc(=O)[nH]c3=O)C(O)C2O)c(=O)[nH]1 (configuration not stated)
EC50: > 200 µM
IC50: > 200 µM

Cc1ccc2nc3n(c2c1)C(c1c(F)cccc1F)SC3 (configuration not stated)
EC50: 26.9 µM
IC50: 45.7 µM

O=C(c1cccs1)N1CCc2ccccc2C1
EC50: > 162 µM
IC50: 107 µM

O=C(/C=C/c1cc2ccccc2o1)N1CCN(c2ccccn2)CC1
EC50: > 200 µM
IC50: 191 µM

O=c1[nH]c2nn(-c3ccccc3)cc2c(=O)n1OS(=O)(=O)c1ccccc1
EC50: > 200 µM
IC50: > 200 µM

CCCn1c(=O)c(N2CCN(c3ccccc3)CC2)nc2sc3ccccc3c21
EC50: > 200 µM
IC50: > 200 µM

O=C(O)c1ccc(S(=O)(=O)c2ccccc2[N+](=O)[O-])cc1
EC50: > 200 µM
IC50: > 200 µM

CC(C)C1OC23CCCCC2C(C#N)(C#N)C1(C#N)C(=N)O3 (configuration not stated)
EC50: > 200 µM
IC50: 5.89 µM

O=C(NNC(=O)c1ccccc1O)c1ccco1
EC50: > 200 µM
IC50: 32.4 µM

c1ccc(Cc2ccc(SSc3ccc(Cc4ccccc4)cc3)cc2)cc1
EC50: > 200 µM
IC50: 26.9 µM

COc1cccc2c(Nc3ccc(S(=O)(=O)NC(C)=O)cc3)c3ccc([N+](=O)[O-])cc3nc12
EC50: > 141 µM
IC50: 95.5 µM

C=CCC(NCc1ccccc1)[C@H](OCc1ccccc1)[C@@H]1COC(C)(C)O1 (some centres not stated)
EC50: > 200 µM
IC50: > 200 µM

C[S+](C)CC(=O)c1ccc2c(c1)Sc1ccccc1O2
EC50: > 100 µM
IC50: 2.04 µM
